# Laboratory results reported in US20040116293A1, “Enhanced herbicide composition” (priority 2002, published 2004).
# Assays:
# Xanthi-nc tobacco [1] = assay: Potentiation rating of Aatrex Nine-O (atrazine) herbicidal activity on Xanthi-nc tobacco relative to equimolar salicylic acid; assay type: in vivo, Nicotiana tabacum (tobacco); set-up: Potentiation Rating: key: 0 = no potentiation; 1 = potentiation less than equimolar SA; 2 = potentiation statistically equal to equimolar SA; 3 = potentiation statistically greater than equimolar SA; settings: for Potentiation of the herbicidal activity of atrazine compared with salicylic acid (in words): tobacco
# From the text: (§1) In all examples, deionized ultra-pure water was used in preparing solutions. Spray solutions were used as soon as possible after mixing.
# (§2) In all herbicide applications, plants were sprayed with a sufficient volume to insure good coverage, to the point of runoff of the spray solution. […] For all treatments containing both an herbicide and a salicylate or SAR inducer, these materials were mixed and applied in a single spray solution (commonly known as a tank mix). After spraying, plants were moved to the greenhouse and arranged in randomized complete blocks. Plants were evaluated for herbicidal effects (phytotoxicity) after spraying by assessing damage according to percent leaf area affected. All the data were subject to an analysis of variance, and the mean separations were determined with Duncan's multiple range test at α=0.05.
# Xanthi-nc tobacco [2] = assay: Herbicidal activity (phytotoxicity, percent leaf area affected) of foliar sprays on Xanthi-nc tobacco; assay type: in vivo, Nicotiana tabacum (tobacco); settings: for Phytotoxicity at 4 days: percent leaf area affected: alone or + NaSA 800 ppm
# From the text: as §1, §2
# [3] = salicylic acid or SAR inducers with Aatrex Nine-O (atrazine), compared with equimolar SA
# [4] = salicylates, picolinates and benzoates at 2 mM with Aatrex Nine-O (atrazine)
# [5] = acibenzolar-S-methyl 935 ppm, alone or + atrazine (Aatrex Nine-O) 100 ppm
# [6] = atrazine (Aatrex Nine-O) 100 ppm, NaSA 800 ppm, acibenzolar-S-methyl 187 ppm, alone or tank-mixed as labelled
SMILES,Potentiation of the herbicidal activity of atrazine compared with salicylic acid (in words) (Xanthi-nc tobacco [1]),Potentiation Rating (Xanthi-nc tobacco [1]; [4]),other results
"O=C(O)c1cc(Cl)nc(Cl)c1 [2,6-Dichloroisonicotinic acid]",greater potentiation than equimolar salicylic acid,–,Potentiation Rating (Xanthi-nc tobacco [1]; [3]): 3
"O=C(O)c1cc(Br)cc(Br)c1O [3,5-Dibromosalicylic acid]",as active as salicylic acid,2,–
"O=C(O)c1cc(Cl)cc(Cl)c1O [3,5-Dichlorosalicylic acid]",greater potentiation than equimolar salicylic acid,–,Potentiation Rating (Xanthi-nc tobacco [1]; [3]): 3
"O=C(O)c1cc(F)cc(F)c1O [3,5-Difluorosalicylic acid]",greater potentiation than salicylic acid,3,–
O=C(O)c1cccc(Cl)c1O [3-Chlorosalicylic acid],greater potentiation than salicylic acid,3,–
O=C(O)c1cccc(F)c1O [3-Fluorosalicylic acid],greater potentiation than salicylic acid,3,–
O=C(O)c1ncccc1O [3-Hydroxypicolinic acid],–,3,–
COc1cccc(C(=O)O)c1O [3-Methoxysalicylic acid],as active as salicylic acid,2,–
Cc1cccc(C(=O)O)c1O [3-Methylsalicylic acid],no potentiation,0,–
O=C(O)c1cccc([N+](=O)[O-])c1O [3-Nitrosalicylic acid],as active as salicylic acid,2,–
O=C(O)c1ccc(Cl)cc1O [4-Chlorosalicylic acid],greater potentiation than equimolar salicylic acid,–,Potentiation Rating (Xanthi-nc tobacco [1]; [3]): 3
O=C(O)c1ccc(F)cc1O [4-Fluorosalicylic acid],greater potentiation than salicylic acid,3,–
Cc1ccc(C(=O)O)c(O)c1 [4-Methylsalicylic acid],no potentiation,0,–
O=C(O)c1cc(Br)ccc1O [5-Bromosalicylic acid],as active as salicylic acid,2,–
O=C(O)c1cc(Cl)ccc1O [5-Chlorosalicylic acid],greater potentiation than equimolar salicylic acid,–,Potentiation Rating (Xanthi-nc tobacco [1]; [3]): 3
O=C(O)c1cc(F)ccc1O [5-Fluorosalicylic acid],greater potentiation than salicylic acid,3,–
Cc1ccc(O)c(C(=O)O)c1 [5-Methylsalicylic acid],–,0,–
O=C(O)c1cc([N+](=O)[O-])ccc1O [5-Nitrosalicylic acid],as active as salicylic acid,2,–
O=C(O)c1c(O)cccc1F [6-Fluorosalicylic acid],as active as salicylic acid,2,–
Cc1cccc(O)c1C(=O)O [6-Methylsalicylic acid],no potentiation,0,–
"CSC(=O)c1cccc2nnsc12 [Acibenzolar-S-methyl, 1,2,3-benzothiadiazole-7-carbothioic acid S-methyl ester]",greater potentiation than equimolar salicylic acid,–,Phytotoxicity at 2 days: percent leaf area affected (Xanthi-nc tobacco [2]; [5]): 0 A percent; Phytotoxicity at 2 days: percent leaf area affected (Xanthi-nc tobacco [2]; [6]): 0 A percent; Phytotoxicity at 3 days: percent leaf area affected (Xanthi-nc tobacco [2]; [5]): 0 A percent; Phytotoxicity at 3 days: percent leaf area affected (Xanthi-nc tobacco [2]; [6]): 0 A percent; Phytotoxicity at 7 days: percent leaf area affected (Xanthi-nc tobacco [2]; [5]): 0.6 A percent; Phytotoxicity at 7 days: percent leaf area affected (Xanthi-nc tobacco [2]; [6]): 0 A percent; Effect of Actigard on atrazine activity (in words) (Xanthi-nc tobacco [2]; tobacco): dose-dependent acceleration of atrazine activity; Potentiation Rating (Xanthi-nc tobacco [1]; [3]): 3
"CC(C)N1C(=O)c2ccccc2NS1(=O)=O [Bentazon, 3-(1-methylethyl)-1H-2,1,3-benzothiadiazin-4(3H)-one 2,2-dioxide]",–,–,Phytotoxicity at 4 days: percent leaf area affected (Xanthi-nc tobacco [2]; bentazon (Basagran) 100 ppm): 10 A percent; Phytotoxicity at 4 days: percent leaf area affected (Xanthi-nc tobacco [2]; bentazon (Basagran) 250 ppm): 32.5 B percent; Phytotoxicity at 4 days: percent leaf area affected (Xanthi-nc tobacco [2]; bentazon (Basagran) 500 ppm): 72.5 CD percent
C=CCOC1=NS(=O)(=O)c2ccccc21 [Probenazole],greater potentiation than equimolar salicylic acid,–,–
"O=C(O)c1ccccc1O [Salicylic acid, salicylic acid]",–,2,Potentiation Rating (Xanthi-nc tobacco [1]; [3]): 2
O=C([O-])c1ccccc1.[Na+] [Sodium benzoate],no potentiation,0,–
CCOC(=O)C(C)OC(=O)c1cc(Oc2ccc(C(F)(F)F)cc2Cl)ccc1[N+](=O)[O-] (centres unmarked) [lactofen],greater potentiation than equimolar salicylic acid,–,–
